Laboratory results published in patent publication US20240197746A1, “COMBINATION THERAPY WITH A MEK INHIBITOR AND A SRC INHIBITOR FOR THE TREATMENT OF COLORECTAL CANCER” (Yeda Research and Development Co. Ltd., priority 2021, published 2024).
Like-named read-outs stand apart in the source and are kept apart here.

System: fresh & PDX human tumors
Experiment: EVOC drug dose calibration, cell death by H&E viability score
Type: cell-based
Excerpt: Tissue acquisition and EVOC. Female NOD scid gamma (NSG) mice (4-6 months old) bearing PDX tumors were purchased from Jackson Laboratories. Mice arrived to the facility when the tumors had grown sufficiently to be apparent (approximately 60 mm^3) and were maintained until the maximal permitted tumor volume of 1,000 mm^3 was achieved. Mice were killed with CO2, and tumor tissues were removed and placed in ice-cold PBS. Tumors were sliced into 250-μm-thick slices using a vibratome (VF300, Precisionary Instruments) and placed in six-well plates on titanium grids (MA0036, Alabama R&D) with 4 ml of DMEM/F12 medium (supplemented with 5% fetal calf serum, 100 IU ml^−1 penicillin with 100 μg ml−1 streptomycin, 2.5 μg ml^−1 amphotericin B, […] gentamicin sulfate and 100 μl ml−1 l-glutamine). Tissue was cultured at 37° C. with 5% CO2 and 80% O2 on an orbital shaker (TOU-120N, MRC) at 70 r.p.m. The following day, tissue was treated with drugs as indicated for 96 h (medium was changed after 48 h and fresh drug was added), followed by formalin fixing and paraffin embedding after overnight fixation in 4% paraformaldehyde. Note that duplicates and triplicates were assigned randomly to mimic heterogeneity within the tumor tissue in vivo.
Human tumor tissue, either from primary colon cancer or metastatic lesions, was obtained from individuals at the time of operation or at the time of tissue core biopsy. After resection, the fresh tissue was placed in ice-cold PBS for immediate transfer to the lab for EVOC. Specimens were coded anonymously before their arrival to the lab. Forty-six individuals were enrolled in the study and had sufficient tumor volume at operation or accessible tumors for core biopsy to allow us to perform EVOC. In one individual, both primary and metastatic cancer tissue was obtained so that 47 samples in total were studied. In 14 individuals, there was either adenoma or not enough tumor tissue for evaluation. In an additional three individuals, the tissue was necrotic before slicing and EVOC. In one individual, the tissue culture was contaminated, and in one individual, the fixation was insufficient. Finally, 29 CRC primary or metastatic tumors from 28 individuals were analyzed by EVOC.
Histologic sections were assessed for viability by an independent blinded pathologist. Tissue viability was scored on a scale from 0 to 4, where 0 is less than 10% viable tissue and 4 is more than 90% viable tissue. Scores of 3, 2 and 1 correspond to tissue viability of 61-90%, 31-60% and 10-30%, respectively.
Determination of drug treatment concentrations. To determine the concentration of each drug to be used in the ex vivo screen, we first calibrated the effect of multiple concentrations of each drug on PDX CRC tumors. For the screens, we selected the doses that were minimally effective in killing tissue after 4 d of treatment as evaluated by H&E staining. […] In addition, when testing targeted therapies, the present inventors validated that the chosen drug concentrations were effective in inhibiting their targets. This was evaluated by immunohistochemical staining after 24 h of treatment (FIGS. 11A-C). Here again, the lowest drug concentration that was enough to inhibit the drug target was used.

[1] = EVOC, concentrations that demonstrate a difference in amount of cell death in individual patient tissues

N.N.[Cl][Pt][Cl] [Cisplatin]
Range eliciting differential response [1]: 0.3-30^ uM

Cl.Cl.O=S(=O)(NCCNC/C=C/c1ccc(Br)cc1)c1cccc2cnccc12 [H89 2HCl, H-89 dihydrochloride]
Range eliciting differential response [1]: 1 to 16 µM

COc1ccc(C2=N[C@@H](c3ccc(Cl)cc3)[C@@H](c3ccc(Cl)cc3)N2C(=O)N2CCNC(=O)C2)c(OC(C)C)c1 [Nutlin]
Range eliciting differential response [1]: 4 to 16 µM

O=C1[O][Pt]2([NH][C@@H]3CCCC[C@H]3[NH]2)[O]C1=O [Oxaliplatin]
Range eliciting differential response: 2 to 64 µM

Cc1cc(Nc2cc(N3CCN(C)CC3)nc(Sc3ccc(NC(=O)C4CC4)cc3)n2)n[nH]1 [VX-680]
Range eliciting differential response [1]: 1 to 16 µM
